Results as given in patent US11214803B2, “Modulators of YAP1 expression” (Ionis Pharmaceuticals, Inc., priority 2019, dated 2022).
Several values for one entry are separate records, joined by “and”; a condition that tells them apart may be missing. Equal entries are not always repeated. Strand notation (5' to 3'): a small letter for the sugar, then the base; units joined by * are phosphorothioate-linked, units joined directly phosphodiester-linked; [ ] holds rarer units or linkages, { } end groups; capitals alone tell only the bases. k = constrained ethyl (cEt); [5mC] = 5-methylcytosine; d = 2'-deoxy (DNA)

Legend:
Yap1 mRNA [1] = assay: Dose-dependent inhibition of human Yap1 in SNU-449 cells (Example 9, RTS36584); format: cell-based; conditions: free uptake; for % UTC (Yap1 mRNA): approximately 48 hours; for IC50: linear regression on a log/linear plot
Summary of the method: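 Read-out was Yap1 mRNA (primer-probe RTS36584) normalised to total RNA by RIBOGREEN, given as % of untreated cells, with IC50 fitted by linear regression of log/linear data. Oligonucleotides were dosed by free uptake to SNU-449 cells, 10,000/well, for ~48 h.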

Yap1 mRNA [2] = assay: Inhibition of human Yap1 mRNA in epidermoid carcinoma A-431 xenograft tumors (Example 27); format: in vivo; conditions: A-431 xenografts in NCr-Foxn1nu mice, 6-8 hours post final dose, relative to PBS
Procedure: An epidermoid carcinoma A-431 xenograft tumor model was used to evaluate activity of modified oligonucleotides targeted to human Yap1. Five million A-431 cells in 30% matrigel were implanted subcutaneously into the flanks of female NCr-Foxn1nu mice (from Taconic) at 4-6 weeks of age. When tumors reached an average volume of 40 mm^3, approximately two weeks post-implantation, groups of four mice each were administered at either 25 mg/kg or 50 mg/kg daily with modified oligonucleotides for […] (5 doses). Tumors were collected 6-8 hours post final dose and tested for Yap1 mRNA knockdown by RT-qPCR. Yap1 mRNA levels were measured as previously described using the Human Yap1 primer-probe set RTS4814. Yap1 mRNA levels were normalized to actin-beta content, as measured by primer probe set RTS5002. Results are presented in the tables below as percent control of the amount of Yap1 mRNA relative to PBS treated animals (% control).

[3] = Cynomolgus monkey tolerability, body and organ weight measurements (Example 34); format: in vivo; conditions: cynomolgus monkeys, 35 mg/kg subcutaneously; for Heart weight / Kidney weight / Liver with gallbladder weight / Spleen weight: necropsy; for Terminal Body Weight: prior to necropsy
Procedure: Cynomolgus monkeys were treated with Ionis modified oligonucleotides selected from studies described in the Examples above. Modified oligonucleotide tolerability was evaluated.
During the study period, the monkeys were observed twice daily for signs of illness or distress. Any animal experiencing more than momentary or slight pain or distress due to the treatment, injury or illness was treated by the veterinary staff with approved analgesics or agents to relieve the pain after consultation with the Study Director. Any animal in poor health or in a possible moribund condition was identified for further monitoring and possible euthanasia. Scheduled euthanasia of the animals was conducted on day 86 approximately 48 hours after the last dose by exsanguination while under deep anesthesia. The protocols described in the Example were approved by the Institutional Animal Care and Use Committee (IACUC).
To evaluate the effect of Ionis oligonucleotides on the overall health of the animals, body and organ weights were measured. Terminal body weight was measured prior to necropsy.

Yap1 mRNA [4] = assay: Inhibition of human Yap1 mRNA in squamous cell carcinoma CAL27 xenograft tumors (Example 28); format: in vivo; conditions: CAL27 xenografts in NCr-Foxn1nu mice, relative to PBS treated
Procedure: A squamous cell carcinoma CAL27 xenograft tumor model was used to evaluate activity of modified oligonucleotides targeted to human Yap1. Five million CAL27 cells in 30% matrigel were implanted subcutaneously into the flanks of female CrTac:NCr-Foxn1nu mice (from Taconic) at 4-6 weeks of age. Groups of four mice each were administered with either 15 mg/kg or 30 mg/kg of modified oligonucleotides daily for five days after tumor size had reached ˜100 mm^3 (about 3 weeks post implantation). Tumors were collected and tested for Yap1 mRNA knockdown by RT-qPCR. Yap1 mRNA levels were measured as previously described using the Human Yap1 primer-probe set RTS4814. Yap1 mRNA levels were normalized to actin-beta content, as measured by primer probe set RTS5002. Results are presented in the tables below as percent control of the amount of Yap1 mRNA relative to PBS treated […].

[5] = Cynomolgus monkey tolerability, coagulation (Example 34); format: in vivo; conditions: cynomolgus monkeys, 35 mg/kg subcutaneously, day 44
Procedure: To evaluate effect of Ionis modified oligonucleotides on coagulation in cynomolgus monkeys, blood samples of approximately 0.9 mL were collected from each of the available study animals on day 44. The samples were collected in tubes containing 3.2% sodium citrate. Coagulation parameters tested include Activated partial thromboplastin time (APTT), prothrombin time (PT) and Figrinogen (FIB).

[6] = Cynomolgus monkey tolerability, kidney and liver function markers (Example 34); conditions: cynomolgus monkeys, 35 mg/kg subcutaneously, day 44
Procedure: Prior to the study, the monkeys were kept in quarantine during which the animals were observed daily for general health. The monkeys were 2-4 years old and weighed 2-4 kg. Eleven groups of 4 randomly assigned male cynomolgus monkeys each were injected subcutaneously with Ionis oligonucleotide or saline in a clock-wise rotation between four different sites on the back. Following loading doses on days 1, 3, 5 and 7, the monkeys were dosed once per week (on days 14, 21, 28, 35, and 42) with 35 mg/kg of Ionis oligonucleotide.
To evaluate the effect of Ionis oligonucleotides on hepatic and kidney function, blood samples were collected from all the study groups on day 44. The monkeys were fasted overnight prior to blood collection. Blood was collected in tubes without anticoagulant for serum separation. The tubes were kept at room temperature for a minimum of 90 minutes and then centrifuged at 3000 rpm for 10 minutes to obtain serum. Levels of various liver function markers were measured using a Toshiba 200FR NEO chemistry analyzer (Toshiba Co., Japan).

[7] = rat, in vivo, sc, 50 mg/kg
Procedure: Male Sprague-Dawley rats were maintained on a 12-hour light/dark cycle and fed ad libitum with Purina normal rat chow. Groups of 4 Sprague-Dawley rats each were weekly injected subcutaneously with 50 mg/kg of Ionis oligonucleotide for 6 weeks (total 7 doses). Forty-eight hours after the last dose, the rats were euthanized; and organs, urine and plasma were harvested for further analysis.
To evaluate the effect of Ionis oligonucleotides on kidney function, urinary levels of total protein and creatinine were measured using an automated clinical chemistry analyzer (Hitachi Olympus AU400c, Melville, N.Y.).

| Substance | % UTC (Yap1 mRNA) (Yap1 mRNA [1]; 125.0 nM) | IC50 (Yap1 mRNA [1]) | Yap1 mRNA in tumors, % control (Yap1 mRNA [2]; 25 mpk daily (5 doses)) | Yap1 mRNA in tumors, % control (Yap1 mRNA [2]; 50 mpk daily (5 doses)) | Heart weight [3] | Kidney weight [3] | Liver with gallbladder weight [3] | Spleen weight [3] | Terminal Body Weight [3] | Yap1 mRNA in tumors, % UTC (Yap1 mRNA [4]; 15 mg/kg daily for five days) | Yap1 mRNA in tumors, % UTC (Yap1 mRNA [4]; 30 mg/kg daily for five days) | APTT [5] | FIB [5] | PT [5] | ALB [6] | ALP [6] | ALT [6] | AST [6] | BUN [6] | CREA [6] | further results |
| --- | --- | --- | --- | --- | --- | --- | --- | --- | --- | --- | --- | --- | --- | --- | --- | --- | --- | --- | --- | --- | --- |
| 715487 (kA*kT*kT*dA*d[5mC]*dT*dT*d[5mC]*dA*dT*dA*dG*d[5mC]*kT*kT*kA) [compound 715487] | 47 % UTC and 44 % UTC and 56 % UTC and 53 % UTC and 73 % UTC and 70 % UTC and 62 % UTC and 48 % UTC | 0.4 µM and 0.3 µM and 0.2 µM | 61 % control | 57 % control |  |  |  |  |  |  |  |  |  |  |  |  |  |  |  |  |  |
| 1076453 (GTAATATTGCAATCTG; 3-10-3 cEt gapmer, further chemistry not given here) [compound 1076453] | 29 % UTC | 0.1 µM | 55 % control | 25 % control | 11 g | 16 g | 72 g | 5 g | 2955 g | 69 % UTC | 46 % UTC | 20 s | 234 mg/dL | 9 s | 3.9 g/dL | 1173 IU/L | 53 IU/L | 76 IU/L | 27 mg/dL | 0.9 mg/dL | GGT [6]: 78 IU/L; GLO [6]: 3.1 g/dL; GLU [6]: 89 mg/dL; HDL [6]: 98 mg/dL; LDL [6]: 66 mg/dL; TBIL [6]: 0.2 mg/dL; TG [6]: 29 mg/dL; TP [6]: 7.0 g/dL; % UTC (Yap1 mRNA) (Yap1 mRNA [1]; 31.3 nM): 67 % UTC; % UTC (Yap1 mRNA) (Yap1 mRNA [1]; 500.0 nM): 8 % UTC; % UTC (Yap1 mRNA) (Yap1 mRNA [1]; 2000.00 nM): 1 % UTC |
| 1197270 (TTAAAGTGTATGTCAG; cEt gapmer with 2'-OMe nucleoside, phosphorothioate, further chemistry not given here) [compound 1197270] | 23 % UTC | < 0.03 µM | 57 % control | 38 % control | 10 g | 17 g | 73 g | 4 g | 2852 g | 55 % UTC | 38 % UTC | 17 s | 257 mg/dL | 10 s | 3.7 g/dL | 1215 IU/L | 84 IU/L | 78 IU/L | 27 mg/dL | 0.9 mg/dL | GGT [6]: 75 IU/L; GLO [6]: 3.1 g/dL; GLU [6]: 115 mg/dL; HDL [6]: 102 mg/dL; LDL [6]: 48 mg/dL; TBIL [6]: 0.2 mg/dL; TG [6]: 31 mg/dL; TP [6]: 6.8 g/dL; URINE P/C ratio (total protein to creatinine ratio) [7]: 14; % UTC (Yap1 mRNA) (Yap1 mRNA [1]; 31.3 nM): 43 % UTC; % UTC (Yap1 mRNA) (Yap1 mRNA [1]; 500.0 nM): 8 % UTC; % UTC (Yap1 mRNA) (Yap1 mRNA [1]; 2000.00 nM): 2 % UTC |
| 1198440 (AAGTGTATGTCAGAAG; cEt, 2'-MOE, 5-methylcytosine, phosphorothioate modifications, further chemistry not given here) [compound 1198440] | 23 % UTC | < 0.03 µM | 32 % control | 21 % control | 11 g | 15 g | 65 g | 3 g | 2919 g | 67 % UTC | 41 % UTC | 20 s | 260 mg/dL | 10 s | 4.1 g/dL | 1412 IU/L | 45 IU/L | 75 IU/L | 26 mg/dL | 0.9 mg/dL | GGT [6]: 80 IU/L; GLO [6]: 2.9 g/dL; GLU [6]: 91 mg/dL; HDL [6]: 104 mg/dL; LDL [6]: 54 mg/dL; TBIL [6]: 0.2 mg/dL; TG [6]: 30 mg/dL; TP [6]: 7.0 g/dL; % UTC (Yap1 mRNA) (Yap1 mRNA [1]; 31.3 nM): 55 % UTC; % UTC (Yap1 mRNA) (Yap1 mRNA [1]; 500.0 nM): 6 % UTC; % UTC (Yap1 mRNA) (Yap1 mRNA [1]; 2000.00 nM): 2 % UTC |
| 1198439 (AGTGTATGTCAGAAGA; sugar, 5-methylcytosine, phosphorothioate modifications, further chemistry not given here) [compound 1198439] | 21 % UTC | < 0.03 µM | 37 % control | 19 % control | 10 g | 15 g | 67 g | 3 g | 2959 g | 66 % UTC | 38 % UTC | 19 s | 246 mg/dL | 10 s | 4.0 g/dL | 1298 IU/L | 40 IU/L | 65 IU/L | 24 mg/dL | 0.9 mg/dL | GGT [6]: 63 IU/L; GLO [6]: 2.8 g/dL; GLU [6]: 115 mg/dL; HDL [6]: 82 mg/dL; LDL [6]: 59 mg/dL; TBIL [6]: 0.2 mg/dL; TG [6]: 28 mg/dL; TP [6]: 6.8 g/dL; % UTC (Yap1 mRNA) (Yap1 mRNA [1]; 31.3 nM): 44 % UTC; % UTC (Yap1 mRNA) (Yap1 mRNA [1]; 500.0 nM): 5 % UTC; % UTC (Yap1 mRNA) (Yap1 mRNA [1]; 2000.00 nM): 2 % UTC |
| 958499 (ATTAGAGTATGTGGCA; 3-10-3 cEt gapmer, further chemistry not given here) [compound 958499] | 47 % UTC | 0.2 µM | 49 % control | 29 % control | 10 g | 15 g | 68 g | 4 g | 2894 g | 68 % UTC | 53 % UTC | 18 s | 275 mg/dL | 9 s | 4.0 g/dL | 1449 IU/L | 67 IU/L | 73 IU/L | 24 mg/dL | 0.9 mg/dL | GGT [6]: 67 IU/L; GLO [6]: 3.2 g/dL; GLU [6]: 83 mg/dL; HDL [6]: 89 mg/dL; LDL [6]: 46 mg/dL; TBIL [6]: 0.2 mg/dL; TG [6]: 41 mg/dL; TP [6]: 7.2 g/dL; % UTC (Yap1 mRNA) (Yap1 mRNA [1]; 31.3 nM): 93 % UTC; % UTC (Yap1 mRNA) (Yap1 mRNA [1]; 500.0 nM): 19 % UTC; % UTC (Yap1 mRNA) (Yap1 mRNA [1]; 2000.00 nM): 7 % UTC |
